Holding throughout (assay type): cell-based
Assay [1] is described as follows: Western blot analysis for "B" compounds. The following applies: read-out: Traditional Western Degradation Potency (DC50). On the procedure:
Western Blot Analysis. Western blot analysis was performed essentially as described previously. The cells treated with indicated compounds were lysed in Radioimmunoprecipitation Assay Protein Lysis and Extraction Buffer (25 mmol/I. Tris.HCl, pH 7.6, 150 mmol/L, NaCl, 1% Nonidet P-40, 1% sodium deoxycholate, and 0.1% sodium dodecyl sulfate) containing proteinase inhibitor cocktail (Roche Diagnostics, Mannheim, Germany). Equal amounts of total protein were electrophoresed through 10% SDS-polyacrylamide gels after determination of protein concentration by BCA assay (Fisher Scientific, Pittsburgh, PA), The separated protein bands were transferred onto PVDF membranes (GE Healthcare Life Sciences, Marlborough, MA) and blotted against different antibodies, as indicated. The blots were scanned, and the band intensities were quantified using GelQuant.NET software provided by biochemlabsolutions.com. The relative mean intensity of target proteins was expressed after normalization to the intensity of glyceraldehyde-3-phosphate dehydrogenase bands.

The target of the next assay is ER in MCF-7 cells (Homo sapiens (Human), UniProt P03372). The assay is described as follows: In-cell Western (ICW) ER degradation assay in MCF-7 cells. The following applies: for Dmax: MCF7, read-out: MCF7 Dmax, MCF-7, maximal ER degradation, 16 hrs treatment; for DC50: MCF-7, ER degradation, 16 hrs treatment, read-out: MCF7 DC50.
The target in a further assay is ER in T47D cells (Homo sapiens (Human), UniProt P03372). In words: In-cell Western (ICW) ER degradation assay in T47D cells. The note with it: for DC50: ER degradation, 16 hrs treatment; for Dmax: read-out: T47D Dmax, T47D, maximal ER degradation, 16 hrs treatment. An excerpt: In-cell Western (ICW) assays in MCF-7 and T47D cell lines.
Day 3: After 16 hrs of compounds treatment, cells were fixed by 4% PFA and permeabilized with elution buffer (0.1% Triton X-100 in 1% PBS Solution). Subsequently, cells were blocked with Intercept (PBS) Blocking Buffer (Li-COR, Odyssey Blocking Buffer), and were stained with ER (1:500, Cell signaling) primary antibody for overnight at cold room.
Day 4: Remove the buffer, add IRDye 800CW Goat anti-Rabbit IgG Secondary Antibody (1:2000) and CellTag 700 Stain (1:500) in Intercept (PBS) Blocking Buffer. Finally, cell plate is placed in incubator to dry. Image and signal were captured on Odyssey® DLx Imaging System.

Data on 14 compounds can be found in patent US20260028354A1, “TETRAHYDRONAPHTHALENE DERIVATIVES AS ESTROGEN RECEPTOR DEGRADERS” (REGENT OF THE UNIVERSITY OF MICHIGAN, priority 2022, published 2026).

Counter-ions that a name gives are not always drawn.

As usually defined, the DC50 is the midpoint of the concentration-degradation curve. In general, Dmax refers to the largest share of the target that was removed.

Chain of ER in T47D cells (P03372 whole entry): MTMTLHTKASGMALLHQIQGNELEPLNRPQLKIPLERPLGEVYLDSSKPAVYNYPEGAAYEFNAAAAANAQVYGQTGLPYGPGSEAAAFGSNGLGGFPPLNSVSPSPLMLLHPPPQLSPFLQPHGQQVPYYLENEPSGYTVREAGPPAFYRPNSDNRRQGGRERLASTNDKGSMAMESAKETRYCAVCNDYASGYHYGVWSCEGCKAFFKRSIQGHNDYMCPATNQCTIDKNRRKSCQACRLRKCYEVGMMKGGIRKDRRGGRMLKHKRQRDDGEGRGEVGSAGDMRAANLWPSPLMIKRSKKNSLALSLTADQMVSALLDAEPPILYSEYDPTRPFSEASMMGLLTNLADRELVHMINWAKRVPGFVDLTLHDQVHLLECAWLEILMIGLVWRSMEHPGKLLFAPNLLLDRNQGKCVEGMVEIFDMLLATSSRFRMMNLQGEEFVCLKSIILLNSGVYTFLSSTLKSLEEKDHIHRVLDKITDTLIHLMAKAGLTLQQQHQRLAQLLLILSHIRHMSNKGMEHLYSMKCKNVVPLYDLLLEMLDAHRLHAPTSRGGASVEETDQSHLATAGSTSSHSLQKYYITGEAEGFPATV
Chain of ER in MCF-7 cells (P03372 whole entry): as above

Turning to “2-(2,6-dioxopiperidin-3-yl)-6-(1-((1-(4-((1R,2S)-6-hydroxy-2- phenyl-1,2,3,4-tctrahydronaphthalcn-1-yl)phenyl)pipcridin-4- yl)methyl)piperidin-4-yl)-2,3,5,6-tetrahydropyrrolo[3,4- f]isoindole-1,7-dione [Compound B304]”, the DC50 in assay [1] is over 100 nM. For “2-(2,6-dioxopiperidin-3-yl)-6-((1S,4s)-4-((3-((4-((1R,2S)-6- hydroxy-2-phenyl-1,2,3,4-tetrahydronaphthalen-1- yl)phenyl)amino)azetidin-1-yl)methyl)cyclohexane-1- carbonyl)-6,7-dihydropyrrolo[3,4-f]isoindole-1,3(2H,5H)- dionc [Compound B113]”, the DC50 in assay [1] is 10 to 100 nM. For “3-(6-((1R,4r)-4-(3-((4-((1R,2S)-6-hydroxy-2-phenyl-1,2,3,4- tetrahydronaphthalen-1-yl)phenyl)amino)azetidin-1- yl)cyclohexane-1-carbonyl)-1-oxo-3,5,6,7- tetrahydropyrrolo[3,4-f]isoindol-2(1H)-yl)pipcridinc-2,6-dionc [Compound B109]”, in assay [1], the DC50 was under 10 nM. Regarding “3-(6-((1R,4r)-4-(3-((4-((1R,2S)-6-hydroxy-2-phenyl-1,2,3,4- tetrahydronaphthalen-1-yl)phenyl)amino)azetidin-1- yl)cyclohexane-1-carbonyl)-1-oxo-3,5,6,7- tetrahydropyrrolo[3,4-f]isoindol-2(1H)-yl)piperidine-2,6-dione [Compound B115]”, the half-maximal degradation concentration (DC50) in assay [1] is over 100 nM. Turning to “3-(6-((1S,4s)-4-(3-((4-((1R,2S)-6-hydroxy-2-phenyl-1,2,3,4- tetrahydronaphthalcn-1-yl)phenyl)amino)azctidin-1- yl)cyclohexane-1-carbonyl)-1-oxo-3,5,6,7- tetrahydropyrrolo[3,4-f]isoindol-2(1H)-yl)piperidine-2,6-dione [Compound B110]”, in assay [1], the DC50 is over 100 nM. Regarding “3-(6-((1S,4s)-4-(3-((4-((1R,2S)-6-hydroxy-2-phenyl-1,2,3,4- tetrahydronaphthalen-1-yl)phenyl)amino)azetidin-1- yl)cyclohexane-1-carbonyl)-1-oxo-3,5,6,7- tetrahydropyrrolo[3,4-f]isoindol-2(1H)-yl)piperidine-2,6-dione [Compound B116]”, in assay [1], the DC50 is over 100 nM. Take `O=C1CCC(N2Cc3cc4c(cc3C2=O)CN(CC2CCN(c3ccc([C@@H]5c6ccc(O)cc6CC[C@@H]5c5ccccc5)cc3)CC2)C4)C(=O)N1` (mixture of isomers) [Compound B1, 3-(6-((1-(4-((1R,2S)-6-hydroxy-2-phenyl-1,2,3,4-tetrahydronaphthalen-1-yl)phenyl)piperidin-4-yl)methyl)-1-oxo-3,5,6,7-tetrahydropyrrolo[3,4-f]isoindol-2(1H)-yl)piperidine-2,6-dione]: the DC50 in assay [1] was over 100 nM. `O=C1CCC(N2C(=O)c3cc4c(cc3C2=O)CN(CC2CCN(c3ccc([C@@H]5c6ccc(O)cc6CC[C@@H]5c5ccccc5)cc3)CC2)C4)C(=O)N1` (mixture of isomers) [Compound B2, 2-(2,6-dioxopiperidin-3-yl)-6-((1-(4-((1R,2S)-6-hydroxy-2-phenyl-1,2,3,4-tetrahydronaphthalen-1-yl)phenyl)piperidin-4-yl)methyl)-6,7-dihydropyrrolo[3,4-f]isoindole-1,3(2H,5H)-dione]: the DC50 in assay [1] lay in the range of 10 to 100 nM. Consider `O=C1CCC(N2Cc3cc4c(cc3C2=O)CN(C2CCN(CC3CCN(c5ccc([C@@H]6c7ccc(O)cc7CC[C@@H]6c6ccccc6)cc5)CC3)CC2)C4)C(=O)N1` (mixture of isomers) [Compound B3, 3-(6-(1-((1-(4-((1R,2S)-6-hydroxy-2-phenyl-1,2,3,4-tetrahydronaphthalen-1-yl)phenyl)piperidin-4-yl)methyl)piperidin-4-yl)-1-oxo-3,5,6,7-tetrahydropyrrolo[3,4-f]isoindol-2(1H)-yl)piperidine-2,6-dione], for which the DC50 in assay [1] is under 10 nM. Take `O=C1CCC(N2C(=O)c3cc4c(cc3C2=O)CN(CC(=O)N2CC3(C2)CN(c2ccc([C@@H]5c6ccc(O)cc6CC[C@@H]5c5ccccc5)cc2)C3)C4)C(=O)N1` (mixture of isomers) [Compound B4, 2-(2,6-dioxopiperidin-3-yl)-6-(2-(6-(4-((1R,2S)-6-hydroxy-2-phenyl-1,2,3,4-tetrahydronaphthalen-1-yl)phenyl)-2,6-diazaspiro[3.3]heptan-2-yl)-2-oxoethyl)-6,7-dihydropyrrolo[3,4-f]isoindole-1,3(2H,5H)-dione]: the DC50 in assay [1] fell in the range of 10 to 100 nM. On to `O=C1CCC(N2C(=O)c3cc4c(cc3C2=O)CN(C(=O)C2CCN(C3CCN(c5ccc([C@@H]6c7ccc(O)cc7CC[C@@H]6c6ccc(F)cc6)cc5)CC3)CC2)C4)C(=O)N1` (mixture of isomers) [Compound B6, 2-(2,6-dioxopiperidin-3-yl)-6-(1′-(4-((1R,2S)-2-(4-fluorophenyl)-6-hydroxy-1,2,3,4-tetrahydronaphthalen-1-yl)phenyl)-[1,4'-bipiperidine]-4-carbonyl)-6,7-dihydropyrrolo[3,4-f]isoindole-1,3(2H,5H)-dione], for which the DC50 in assay [1] was under 10 nM. For the compound `O=C1CCC(N2C(=O)c3cc4c(cc3C2=O)CN(CC2CCN(C(=O)C3CCN(c5ccc([C@@H]6c7ccc(O)cc7CC[C@@H]6c6ccccc6)cc5)CC3)CC2)C4)C(=O)N1` (mixture of isomers) [Compound B8, 2-(2,6-dioxopiperidin-3-yl)-6-((1-(1-(4-((1R,2S)-6-hydroxy-2-phenyl-1,2,3,4-tetrahydronaphthalen-1-yl)phenyl)piperidine-4-carbonyl)piperidin-4-yl)methyl)-6,7-dihydropyrrolo[3,4-f]isoindole-1,3(2H,5H)-dione], the DC50 in assay [1] lay within 10 to 100 nM. As to `COc1cc(N2CCC(CN3CCC4(CC3)COc3cc5c(cc34)CN([C@H]3CCC(=O)NC3=O)C5=O)CC2)ccc1[C@H]1c2ccc(O)cc2CC[C@H]1c1ccccc1` [Compound A38, (R)-3-(1′-((1-(4-((1S,2S)-6-hydroxy-2-phenyl-1,2,3,4-tetrahydronaphthalen-1-yl)-3-methoxyphenyl)piperidin-4-yl)methyl)-7-oxo-5,7-dihydro-2H,6H-spiro[furo[2,3-f]iso-indole-3,4′-piperidin]-6-yl)-piperidine-2,6-dione formate], the Dmax at ER in MCF-7 cells and at ER in T47D cells was 25 to 50% in each case. Also, the DC50 was 10 to 100 nM at ER in MCF-7 cells and 1 to 10 nM at ER in T47D cells. In the case of `COc1cc(N2CCC(CN3CCC4(CC3)COc3cc5c(cc34)CN([C@H]3CCC(=O)NC3=O)C5=O)CC2)c(F)cc1[C@@H]1c2ccc(O)cc2CC[C@@H]1c1ccccc1` [Compound A122, (S)-3-(1′-((1-(2-fluoro-4-((1S,2S)-6-hydroxy-2-phenyl-1,2,3,4-tetrahydronaphthalen-1-yl)-5-methoxyphenyl)piperidin-4-yl)methyl)-7-oxo-5,7-dihydro-2H,6H-spiro[furo[2,3-f]isoindole-3,4′-piperidin]-6-yl)piperidine-2,6-dione], the Dmax on ER in MCF-7 cells and at ER in T47D cells was 50 to 75% each time. In addition, the DC50 on ER in MCF-7 cells and at ER in T47D cells was under 1 nM in each case.
